# Results as given in patent publication US20150353928A1, “Genes Contributing to Survival of Cancer Cells” (Georgetown University, priority 2011, published 2015).
# Tests used:
# LCC1 cells = experiment: Bortezomib concentration response, Cell Titer Blue viability; type: cell-based; conditions: 2.5 nM-2.5 μM
# Procedure: (§1) LCC1, LCC9 and MCF7 cells were seeded at density so that the untreated condition was at 80% confluence on day 7 in the appropriate medium. Cells were incubated at 37° C. and 5% CO2 for […]. Twenty-four hours later, cells were treated with Bortezomib with final well concentrations ranging from 2.5 nM-2.5 μM. On the seventh day, 20 μL of 1:1 mixture of Cell Titer Blue (CTB) from Promega and Hank's Buffered Salt Solution (HBSS) was added to each well and incubated for another 4 hours before reading out the results using the EnVision Multilabel Plate Reader from PerkinElmer. Viability was calculated as a percentage of the untreated cells.
# LCC9 cells = experiment: as above; type: cell-based; conditions: 2.5 nM-2.5 μM
# Procedure: as §1
compound,measurement,setting,value
CC(C)C[C@H](NC(=O)[C@H](Cc1ccccc1)NC(=O)c1cnccn1)B(O)O [Bortezomib],sensitivity to bortezomib compared to MCF7 (concentration response curves),LCC1 cells,more sensitive
same,sensitivity to bortezomib compared to MCF7 (concentration response curves),LCC9 cells,more sensitive
